According to ChEMBL document CHEMBL3991601, “The target landscape of clinical kinase drugs” (Science, 2017):
pKd: −log10 of the molar value. Activity calls are given as the source filed them.

Tests used:
Activin receptor type-1 = target: T1, Activin receptor type-1 (Homo sapiens, UniProt Q04771)
T1 sequence (Q04771 whole entry): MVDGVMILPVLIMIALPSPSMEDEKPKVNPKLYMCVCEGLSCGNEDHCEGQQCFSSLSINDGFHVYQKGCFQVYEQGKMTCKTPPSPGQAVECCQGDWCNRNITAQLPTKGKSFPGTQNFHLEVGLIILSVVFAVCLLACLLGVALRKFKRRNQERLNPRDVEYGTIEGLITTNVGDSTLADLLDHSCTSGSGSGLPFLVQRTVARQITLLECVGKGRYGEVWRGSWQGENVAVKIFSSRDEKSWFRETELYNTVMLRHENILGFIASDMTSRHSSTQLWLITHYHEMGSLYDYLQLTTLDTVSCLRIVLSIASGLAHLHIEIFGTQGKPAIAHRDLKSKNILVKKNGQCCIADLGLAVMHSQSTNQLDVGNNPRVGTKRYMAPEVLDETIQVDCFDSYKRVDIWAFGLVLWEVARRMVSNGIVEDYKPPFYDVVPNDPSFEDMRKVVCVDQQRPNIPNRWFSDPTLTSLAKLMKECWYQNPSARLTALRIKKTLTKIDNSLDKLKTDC

[1] = target: T2, AarF domain-containing protein kinase 1 (Homo sapiens, UniProt Q86TW2)
T2 sequence (Q86TW2 whole entry): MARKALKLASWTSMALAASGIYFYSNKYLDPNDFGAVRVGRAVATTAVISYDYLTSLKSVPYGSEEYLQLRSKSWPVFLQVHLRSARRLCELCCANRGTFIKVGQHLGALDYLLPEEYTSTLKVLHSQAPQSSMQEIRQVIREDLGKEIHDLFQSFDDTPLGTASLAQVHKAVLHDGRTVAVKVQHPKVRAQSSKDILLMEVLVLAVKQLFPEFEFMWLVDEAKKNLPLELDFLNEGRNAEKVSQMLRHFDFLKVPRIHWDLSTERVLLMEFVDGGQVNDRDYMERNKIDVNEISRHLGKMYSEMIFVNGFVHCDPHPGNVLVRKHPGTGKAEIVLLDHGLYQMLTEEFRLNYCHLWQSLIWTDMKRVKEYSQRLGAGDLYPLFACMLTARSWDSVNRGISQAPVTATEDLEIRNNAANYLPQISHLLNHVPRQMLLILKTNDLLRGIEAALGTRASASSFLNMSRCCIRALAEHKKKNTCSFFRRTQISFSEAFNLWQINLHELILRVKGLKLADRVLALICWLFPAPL

[2] = target: Adenylate kinase 2, mitochondrial (Homo sapiens, UniProt P54819)
[3] = target: Guanine nucleotide-binding protein G(i) subunit alpha-2 (Homo sapiens, UniProt P04899)
Sequence of Guanine nucleotide-binding protein G(i) subunit alpha-2 (P04899 whole entry): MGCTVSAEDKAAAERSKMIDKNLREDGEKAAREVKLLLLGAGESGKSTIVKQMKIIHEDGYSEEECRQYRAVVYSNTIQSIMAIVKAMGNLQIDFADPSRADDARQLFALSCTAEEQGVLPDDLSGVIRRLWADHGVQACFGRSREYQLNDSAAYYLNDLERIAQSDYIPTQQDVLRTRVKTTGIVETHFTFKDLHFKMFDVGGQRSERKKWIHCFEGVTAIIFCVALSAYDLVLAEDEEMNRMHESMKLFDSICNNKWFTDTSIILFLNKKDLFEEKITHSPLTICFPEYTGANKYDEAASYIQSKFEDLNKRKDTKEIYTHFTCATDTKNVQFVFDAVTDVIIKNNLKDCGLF

[4] = target: Putative heat shock protein HSP 90-beta 2 (Homo sapiens, UniProt Q58FF8)
Sequence of Putative heat shock protein HSP 90-beta 2 (Q58FF8 whole entry): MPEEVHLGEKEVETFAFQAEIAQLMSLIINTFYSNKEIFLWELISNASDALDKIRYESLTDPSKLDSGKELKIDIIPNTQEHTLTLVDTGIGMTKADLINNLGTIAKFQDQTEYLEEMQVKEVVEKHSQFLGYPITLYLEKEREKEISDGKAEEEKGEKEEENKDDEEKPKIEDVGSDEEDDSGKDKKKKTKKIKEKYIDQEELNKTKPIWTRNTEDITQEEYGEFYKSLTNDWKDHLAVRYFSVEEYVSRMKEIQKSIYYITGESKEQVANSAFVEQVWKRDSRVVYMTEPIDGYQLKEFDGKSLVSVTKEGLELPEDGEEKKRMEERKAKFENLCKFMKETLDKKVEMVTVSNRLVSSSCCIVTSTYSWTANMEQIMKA

[5] = target: T3, Mitogen-activated protein kinase kinase kinase kinase 2 (Homo sapiens, UniProt Q12851)
T3 sequence (Q12851 whole entry): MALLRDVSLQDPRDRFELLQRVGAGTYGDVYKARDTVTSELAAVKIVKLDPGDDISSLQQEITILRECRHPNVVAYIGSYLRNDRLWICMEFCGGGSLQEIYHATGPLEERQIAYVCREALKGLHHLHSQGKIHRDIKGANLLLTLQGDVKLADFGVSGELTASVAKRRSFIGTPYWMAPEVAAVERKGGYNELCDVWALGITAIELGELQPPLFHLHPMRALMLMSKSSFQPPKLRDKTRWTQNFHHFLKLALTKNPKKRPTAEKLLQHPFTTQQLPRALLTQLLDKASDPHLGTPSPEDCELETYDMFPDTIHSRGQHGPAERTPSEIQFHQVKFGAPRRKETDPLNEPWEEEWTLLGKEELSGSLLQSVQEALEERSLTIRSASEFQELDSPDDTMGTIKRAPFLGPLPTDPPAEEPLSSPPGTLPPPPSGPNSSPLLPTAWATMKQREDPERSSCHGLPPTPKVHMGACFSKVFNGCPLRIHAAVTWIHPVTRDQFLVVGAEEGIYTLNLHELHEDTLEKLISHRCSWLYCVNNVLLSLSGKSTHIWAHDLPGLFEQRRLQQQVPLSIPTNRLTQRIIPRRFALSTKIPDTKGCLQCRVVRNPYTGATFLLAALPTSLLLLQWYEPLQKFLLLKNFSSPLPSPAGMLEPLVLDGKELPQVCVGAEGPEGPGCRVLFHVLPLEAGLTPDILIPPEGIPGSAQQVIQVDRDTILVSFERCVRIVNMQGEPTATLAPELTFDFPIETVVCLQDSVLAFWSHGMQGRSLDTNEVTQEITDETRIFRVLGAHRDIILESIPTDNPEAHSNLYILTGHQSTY

[6] = target: Mitogen-activated protein kinase kinase kinase kinase 4 (Homo sapiens, UniProt O95819)
Sequence of Mitogen-activated protein kinase kinase kinase kinase 4 (O95819 whole entry): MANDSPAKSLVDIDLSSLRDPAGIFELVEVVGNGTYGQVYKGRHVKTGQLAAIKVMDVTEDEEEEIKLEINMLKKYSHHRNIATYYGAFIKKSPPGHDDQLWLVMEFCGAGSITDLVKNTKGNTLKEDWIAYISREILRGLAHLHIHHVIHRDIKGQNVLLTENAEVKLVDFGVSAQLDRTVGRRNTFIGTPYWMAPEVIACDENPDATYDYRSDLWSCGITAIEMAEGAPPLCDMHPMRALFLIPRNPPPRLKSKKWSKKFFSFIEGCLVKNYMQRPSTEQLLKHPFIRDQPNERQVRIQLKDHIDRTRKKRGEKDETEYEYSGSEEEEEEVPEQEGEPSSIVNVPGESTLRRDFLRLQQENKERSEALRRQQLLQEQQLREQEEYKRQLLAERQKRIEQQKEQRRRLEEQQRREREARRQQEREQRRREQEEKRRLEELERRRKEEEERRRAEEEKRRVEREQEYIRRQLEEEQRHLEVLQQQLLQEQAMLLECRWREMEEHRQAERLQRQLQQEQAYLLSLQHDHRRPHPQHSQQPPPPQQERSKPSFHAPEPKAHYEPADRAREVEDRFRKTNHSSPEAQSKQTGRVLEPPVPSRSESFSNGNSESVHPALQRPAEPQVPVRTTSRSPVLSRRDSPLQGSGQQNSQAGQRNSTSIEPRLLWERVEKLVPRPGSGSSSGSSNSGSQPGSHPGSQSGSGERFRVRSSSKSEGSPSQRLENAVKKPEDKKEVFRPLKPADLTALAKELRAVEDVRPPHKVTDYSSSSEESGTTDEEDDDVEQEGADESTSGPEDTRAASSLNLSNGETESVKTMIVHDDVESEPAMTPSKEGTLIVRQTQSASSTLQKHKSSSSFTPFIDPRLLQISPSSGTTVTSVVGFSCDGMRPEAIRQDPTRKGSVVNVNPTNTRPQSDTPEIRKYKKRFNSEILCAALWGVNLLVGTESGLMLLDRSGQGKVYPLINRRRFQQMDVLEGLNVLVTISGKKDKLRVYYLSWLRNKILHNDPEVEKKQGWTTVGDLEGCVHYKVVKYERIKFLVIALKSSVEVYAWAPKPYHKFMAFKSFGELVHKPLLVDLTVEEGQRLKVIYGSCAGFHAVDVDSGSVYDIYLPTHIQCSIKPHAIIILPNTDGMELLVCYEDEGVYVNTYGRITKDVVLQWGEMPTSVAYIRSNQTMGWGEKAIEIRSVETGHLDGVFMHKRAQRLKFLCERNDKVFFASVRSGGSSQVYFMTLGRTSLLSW

[7] = target: Macrophage-stimulating protein receptor (Homo sapiens, UniProt Q04912)
Sequence of Macrophage-stimulating protein receptor (Q04912 25-304 limits assumed): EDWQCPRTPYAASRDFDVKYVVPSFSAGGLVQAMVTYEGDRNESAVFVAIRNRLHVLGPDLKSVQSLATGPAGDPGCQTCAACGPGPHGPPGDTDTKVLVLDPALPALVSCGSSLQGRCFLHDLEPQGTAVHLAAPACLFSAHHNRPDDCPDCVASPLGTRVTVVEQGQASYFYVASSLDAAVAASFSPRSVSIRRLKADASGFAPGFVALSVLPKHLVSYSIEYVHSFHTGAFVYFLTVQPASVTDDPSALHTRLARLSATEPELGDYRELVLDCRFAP
Sequence of Macrophage-stimulating protein receptor (Q04912 310-1400 limits assumed): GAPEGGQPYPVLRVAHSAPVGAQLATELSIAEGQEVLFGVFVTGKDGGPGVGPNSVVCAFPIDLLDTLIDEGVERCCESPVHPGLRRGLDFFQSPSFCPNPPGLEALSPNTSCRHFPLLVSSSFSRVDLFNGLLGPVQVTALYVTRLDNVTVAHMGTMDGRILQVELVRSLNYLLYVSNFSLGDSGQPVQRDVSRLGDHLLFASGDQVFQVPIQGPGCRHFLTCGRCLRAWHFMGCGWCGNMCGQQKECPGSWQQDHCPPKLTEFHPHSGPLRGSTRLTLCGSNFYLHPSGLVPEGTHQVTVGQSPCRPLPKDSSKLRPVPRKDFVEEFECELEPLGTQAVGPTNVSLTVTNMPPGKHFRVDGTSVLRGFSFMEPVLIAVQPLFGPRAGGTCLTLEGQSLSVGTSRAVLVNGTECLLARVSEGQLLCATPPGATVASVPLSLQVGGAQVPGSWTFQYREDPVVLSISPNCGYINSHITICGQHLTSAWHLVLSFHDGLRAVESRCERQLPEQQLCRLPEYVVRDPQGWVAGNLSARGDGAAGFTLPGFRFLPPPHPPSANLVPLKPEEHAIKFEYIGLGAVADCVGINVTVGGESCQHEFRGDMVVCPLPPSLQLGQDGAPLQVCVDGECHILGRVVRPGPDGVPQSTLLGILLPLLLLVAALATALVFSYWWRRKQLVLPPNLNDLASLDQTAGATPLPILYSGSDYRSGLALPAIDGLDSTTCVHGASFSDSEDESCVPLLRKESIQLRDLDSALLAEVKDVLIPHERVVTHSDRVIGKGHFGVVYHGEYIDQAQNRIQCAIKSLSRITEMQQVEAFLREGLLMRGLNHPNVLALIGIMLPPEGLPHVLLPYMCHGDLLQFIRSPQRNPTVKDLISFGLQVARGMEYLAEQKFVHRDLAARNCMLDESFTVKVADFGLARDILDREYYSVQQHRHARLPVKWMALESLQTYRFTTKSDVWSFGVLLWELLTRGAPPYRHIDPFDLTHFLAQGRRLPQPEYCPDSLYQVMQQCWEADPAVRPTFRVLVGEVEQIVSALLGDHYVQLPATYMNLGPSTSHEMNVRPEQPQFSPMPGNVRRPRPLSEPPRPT

[8] = target: T4, Ras-related protein Rab-27A (Homo sapiens, UniProt P51159)
T4 sequence (P51159 whole entry): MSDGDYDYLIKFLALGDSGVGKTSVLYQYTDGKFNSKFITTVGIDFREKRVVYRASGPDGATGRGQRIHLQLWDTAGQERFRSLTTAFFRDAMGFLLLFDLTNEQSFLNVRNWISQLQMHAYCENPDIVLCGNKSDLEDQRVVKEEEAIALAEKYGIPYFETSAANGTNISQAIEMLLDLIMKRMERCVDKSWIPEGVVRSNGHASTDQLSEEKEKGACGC

ADP/ATP translocase 2 = target: T5, ADP/ATP translocase 2 (Homo sapiens, UniProt P05141)
T5 sequence (P05141 whole entry): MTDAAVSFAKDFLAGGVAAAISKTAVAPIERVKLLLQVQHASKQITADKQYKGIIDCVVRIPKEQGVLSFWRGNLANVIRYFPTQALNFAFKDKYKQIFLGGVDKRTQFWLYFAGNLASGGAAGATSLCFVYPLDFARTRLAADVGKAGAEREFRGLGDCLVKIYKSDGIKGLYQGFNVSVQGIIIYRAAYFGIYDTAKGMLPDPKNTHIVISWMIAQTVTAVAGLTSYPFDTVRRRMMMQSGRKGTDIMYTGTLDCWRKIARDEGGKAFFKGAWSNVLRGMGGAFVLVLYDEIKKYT

[9] = target: Dual specificity mitogen-activated protein kinase kinase 1 (Homo sapiens, UniProt Q02750)
Sequence of Dual specificity mitogen-activated protein kinase kinase 1 (Q02750 whole entry): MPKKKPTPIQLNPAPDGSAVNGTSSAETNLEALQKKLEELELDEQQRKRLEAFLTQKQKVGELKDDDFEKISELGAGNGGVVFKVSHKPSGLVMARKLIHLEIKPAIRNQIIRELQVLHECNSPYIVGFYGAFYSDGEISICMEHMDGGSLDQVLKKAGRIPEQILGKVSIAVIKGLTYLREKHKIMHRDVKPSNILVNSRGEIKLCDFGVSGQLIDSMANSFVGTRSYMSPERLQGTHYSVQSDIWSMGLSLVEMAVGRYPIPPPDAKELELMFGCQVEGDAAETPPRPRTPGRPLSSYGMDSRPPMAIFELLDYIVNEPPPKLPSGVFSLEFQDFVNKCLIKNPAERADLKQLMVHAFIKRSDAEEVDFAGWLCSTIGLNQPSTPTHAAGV
Note: in the data inactive means no Kd found up to 30 µM.

SMILES | Kd (Activin receptor type-1) | Kd [1] | Kd [2] | Kd [3] | Kd [4] | Kd [5] | Kd [6] | Kd [7] | Kd [8] | Kd (ADP/ATP translocase 2) | Kd [9] | pKd [3] | pKd [9]
CCNC(=O)C#Cc1ccc2c(c1)NC(=O)/C2=C(\Nc1ccc(CN(C)C)cc1)c1ccccc1 | > 30 µM (inactive) | > 30 µM (inactive) | > 30 µM (inactive) | > 30 µM (inactive) | > 30 µM (inactive) | > 30 µM (inactive) | > 30 µM (inactive) | > 30 µM (inactive) | > 30 µM (inactive) | > 30 µM (inactive) |  |  | 
Cc1nc2cc(-c3nn(C(C)C)c4ncnc(N)c34)ccc2o1 | 0.04 µM (active) | > 30 µM (inactive) | > 30 µM (inactive) | > 30 µM (inactive) | > 30 µM (inactive) | 15.9 µM (active) |  | > 30 µM (inactive) | > 30 µM (inactive) | > 30 µM (inactive) | 3.01 µM (active) |  | 
COc1cc(Nc2ncc3c(n2)-c2ccc(Cl)cc2C(c2c(F)cccc2OC)=NC3)ccc1C(=O)O [ALISERTIB] | > 30 µM (inactive) | > 30 µM (inactive) | > 30 µM (inactive) |  | > 30 µM (inactive) |  |  |  | > 30 µM (inactive) | > 30 µM (inactive) |  | 6.74 | 
CNC(=O)c1ccccc1Sc1ccc2c(/C=C/c3ccccn3)n[nH]c2c1 [AXITINIB] |  | > 30 µM (inactive) | > 30 µM (inactive) | > 30 µM (inactive) | > 30 µM (inactive) |  |  |  | > 30 µM (inactive) | > 30 µM (inactive) |  |  | 
Cc1[nH]c(/C=C2\C(=O)Nc3ccccc32)c(C)c1CCC(=O)O [ORANTINIB] | > 30 µM (inactive) | > 30 µM (inactive) | > 30 µM (inactive) | > 30 µM (inactive) | > 30 µM (inactive) |  |  | > 30 µM (inactive) | > 30 µM (inactive) | > 30 µM (inactive) | 3.43 µM (active) |  | 
N#CC[C@H](C1CCCC1)n1cc(-c2ncnc3[nH]ccc23)cn1 [RUXOLITINIB] |  | > 30 µM (inactive) | > 30 µM (inactive) | > 30 µM (inactive) | > 30 µM (inactive) |  |  |  | > 30 µM (inactive) | > 30 µM (inactive) |  |  | 
CO[C@H]1C[C@@H]2CC[C@@H](C)[C@@](O)(O2)C(=O)C(=O)N2CCCC[C@H]2C(=O)O[C@H]([C@H](C)C[C@@H]2CC[C@@H](O)[C@H](OC)C2)CC(=O)[C@H](C)/C=C(\C)[C@@H](O)[C@@H](OC)C(=O)[C@H](C)C[C@H](C)/C=C/C=C/C=C/1C [SIROLIMUS] | > 30 µM (inactive) | > 30 µM (inactive) | > 30 µM (inactive) |  | > 30 µM (inactive) | > 30 µM (inactive) | > 30 µM (inactive) | > 30 µM (inactive) | > 30 µM (inactive) | > 30 µM (inactive) | > 30 µM (inactive) |  | 
O=C(Cc1ccc(-c2ccc(OCCN3CCOCC3)cc2)cn1)NCc1ccccc1 [TIRBANIBULIN] | > 30 µM (inactive) | > 30 µM (inactive) | > 30 µM (inactive) |  | > 30 µM (inactive) | > 30 µM (inactive) | > 30 µM (inactive) | > 30 µM (inactive) | > 30 µM (inactive) | > 30 µM (inactive) | > 30 µM (inactive) |  | 
Cc1cc(Nc2ncnc3ccc(NC4=NC(C)(C)CO4)cc23)ccc1Oc1ccn2ncnc2c1 [TUCATINIB] | > 30 µM (inactive) | > 30 µM (inactive) | > 30 µM (inactive) |  | > 30 µM (inactive) | > 30 µM (inactive) | > 30 µM (inactive) | > 30 µM (inactive) | > 30 µM (inactive) | > 30 µM (inactive) | > 30 µM (inactive) |  | 
C[C@@H](N)c1ccc(C(=O)Nc2ccnc3[nH]ccc23)cc1 [Y-39983] | > 30 µM (inactive) | > 30 µM (inactive) | > 30 µM (inactive) |  | > 30 µM (inactive) | > 30 µM (inactive) | 0.946 µM (active) | > 30 µM (inactive) | > 30 µM (inactive) | > 30 µM (inactive) | > 30 µM (inactive) |  | 

Results, then the compound that gave them:

Kd (Activin receptor type-1) | Kd [1] | Kd [2] | Kd [3] | Kd [4] | Kd [5] | Kd [6] | Kd [7] | Kd [8] | Kd (ADP/ATP translocase 2) | Kd [9] | pKd [3] | pKd [9] | SMILES
0.078 µM (active) | 0.559 µM (active) | > 30 µM (inactive) | > 30 µM (inactive) | > 30 µM (inactive) | > 30 µM (inactive) |  | > 30 µM (inactive) | > 30 µM (inactive) | > 30 µM (inactive) | > 30 µM (inactive) |  |  | O=C(Nc1c[nH]nc1-c1nc2cc(CN3CCOCC3)ccc2[nH]1)NC1CC1 [AT-9283]
 | > 30 µM (inactive) | > 30 µM (inactive) | > 30 µM (inactive) | > 30 µM (inactive) |  |  |  | > 30 µM (inactive) | > 30 µM (inactive) |  |  |  | C[C@@H](Oc1cc(-n2cnc3ccc(CN4CCN(C)CC4)cc32)sc1C(N)=O)c1ccccc1C(F)(F)F [GSK-461364]
 | 0.281 µM (active) | > 30 µM (inactive) | > 30 µM (inactive) | > 30 µM (inactive) |  |  |  | > 30 µM (inactive) | > 30 µM (inactive) |  |  |  | NC(=O)c1c(OCc2c(F)cc(Br)cc2F)nsc1NC(=O)NCCCCN1CCCC1 [OSI-632]
 | > 30 µM (inactive) | > 30 µM (inactive) | > 30 µM (inactive) | > 30 µM (inactive) |  |  |  | > 30 µM (inactive) | > 30 µM (inactive) |  |  |  | O=C(NOCCO)c1cc(CN2OCCCC2=O)c(F)c(F)c1Nc1ccc(I)cc1F [RO-4987655]
> 30 µM (inactive) | > 30 µM (inactive) | > 30 µM (inactive) |  | > 30 µM (inactive) | > 30 µM (inactive) | > 30 µM (inactive) | > 30 µM (inactive) | > 30 µM (inactive) | > 30 µM (inactive) | > 30 µM (inactive) |  |  | Cn1cc(-c2cnn3c(N)c(Br)c([C@@H]4CCCNC4)nc23)cn1 [SCH-900776]
0.005 µM (active) | > 30 µM (inactive) | > 30 µM (inactive) |  | > 30 µM (inactive) | 0.352 µM (active) | > 30 µM (inactive) | 2.37 µM (active) | > 30 µM (inactive) | > 30 µM (inactive) |  |  | 5.15 | CC(C)c1cc(CNc2nc(Nc3cc(C4CC4)[nH]n3)cc(N3CCN(C)CC3)n2)on1 [XL-228]
